Results on two compounds are retold here after patent US10487349B2, “Use of a fluidic device” (GRADIENTECH AB, priority 2013, dated 2019).

One series relates to E. coli K12 MG1655. Briefly: Microfluidic 3D culture matrix concentration-gradient antibiotic susceptibility test (CELLDIRECTOR Ruby). The format is cell-based, Escherichia coli. As to conditions: E. coli K12 MG1655 in agarose 3D culture matrix; gradient ampicillin 20-0 μg/ml or spectinomycin 50-0 μg/ml. As to the method: Bacterium strain E. coli K12 MG1655 was cultured on a Luria broth (LB) plate. The E. coli cells were diluted by phosphate buffered saline (PBS) to OD600=0.1 as measured by a MULTISKAN® FC Microplate Photometer (Thermo Scientific). Same volumes of PBS with OD600=0.1 cells and low-melting temperature agarose were mixed together. A pipette with white tips was used to suck up 8 μl of the mixture and inject the mixture into the culture chamber of a microfluidic device CELLDIRECTOR® Ruby (Gradientech AB), see upper panel in FIG. 20. The fluid channel inputs of the microfluidic device were connected to fluid reservoirs comprising Muelle-Hinton medium and where one of the reservoirs also contained 20 μg/ml ampicillin. The speed of a pusher used to draw the medium into the fluid channels was set to 5 μl/min for 30 minutes and then to 2 μl/min for the rest of the time. […]
The pictures were cut to match a selected central portion of the culture chamber, see black box in FIGS. 17A and 18A. Image processing software was used to extract detected light intensity data from the pictures. A spatial growth situation distribution diagram was used to summarize the grey-scale values, i.e. detected light intensity values, of all the lines that are perpendicular to the direction of the gradient as the Y-axis with the concentration gradient as the X-axis. […]

The conditions of series [1]: in agarose matrix; cited from earlier work.

With `CN[C@@H]1[C@H](O)[C@H](NC)[C@H]2O[C@@]3(O)C(=O)C[C@@H](C)O[C@H]3O[C@@H]2[C@H]1O` [spectinomycin], in the series on E. coli K12 MG1655, the “resistance of the microorganism to the test substance, from width of the border zone” value was “presence of spectinomycin resistance”.

As for `CC1(C)S[C@@H]2[C@H](NC(=O)[C@H](N)c3ccccc3)C(=O)N2[C@H]1C(=O)O` [ampicillin], the “diffusion constant D” value in series [1] is reported as 0.016 cm^2/h. In the series on E. coli K12 MG1655, the “resistance of the microorganism to the test substance, from width of the border zone” value is on record as “no corresponding ampicillin resistance was detected”.
